Laboratory results taken from ChEMBL document CHEMBL5728559, “Alkylphenyl compounds” (2021).

What was measured:
[1] = target: Sphingosine 1-phosphate receptor 3 (Homo sapiens, UniProt Q99500); assay: Receptor [35S] GTPgammaS Binding Assays: Compounds were loaded in a 384 Falcon v-bottom plate (0.5 μL/well in a 11 point, 3-fold dilution). Membranes prepared from S1P1/CHO cells or EDG3-Gal5-bla HEK293T cells (EDG3 equivalent S1P3) were added to the compound plate (40 μL/well, final protein 3 μg/well) with MULTIDROP®. [35S]GTP (1250 Ci/mmol, Perkin Elmer) was diluted in assay buffer: 20 mM HEPES, pH7.5, 10 mM MgCl2, 150 mM NaCl, 1 mM EGTA(ethylene glycol tetraacetic acid), 1 mM DTT (dithiothreitol), 10 μM GDP, 0.1% fatty acid free BSA, and 10 μg/ml Saponin to 0.4 nM. 40 μL of the [35S] GTP solution was added to the compound plate with a final concentration of 0.2 nM. The reaction was kept at room temperature for 45 min. At the end of incubation, all the mixtures in the compound plate were transferred to Millipore 384-well FB filter plates via the VELOCITY11® Vprep liquid handler. The filter plate was washed with water 4 times by using the manifold Embla plate washer and dried at 60° C. for 45 min. MicroScint 20 scintillation fluid (30 μL) was added to each well for counting on the Packard TOPCOUNT®. EC50 is defined as the agonist concentration that corresponds to 50% of the Ymax (maximal response) obtained for each individual compound tested.A smaller value for GTPγS S1P1 EC50 value indicated greater activity for the compound in the GTPγS S1P1 binding assay. […]
Chain of Sphingosine 1-phosphate receptor 3 (Q99500 whole entry): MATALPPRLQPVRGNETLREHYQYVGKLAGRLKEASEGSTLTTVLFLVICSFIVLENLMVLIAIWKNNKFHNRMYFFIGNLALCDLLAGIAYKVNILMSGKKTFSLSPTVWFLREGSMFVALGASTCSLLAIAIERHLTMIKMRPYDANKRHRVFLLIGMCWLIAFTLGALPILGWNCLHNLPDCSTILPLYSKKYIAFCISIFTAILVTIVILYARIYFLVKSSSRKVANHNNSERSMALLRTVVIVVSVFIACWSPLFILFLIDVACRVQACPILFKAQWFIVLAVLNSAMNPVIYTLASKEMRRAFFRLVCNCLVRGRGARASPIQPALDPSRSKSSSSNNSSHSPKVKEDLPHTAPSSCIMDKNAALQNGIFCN

[2] = target: Sphingosine 1-phosphate receptor 1 (Homo sapiens, UniProt P21453); assay: S1P1 Binding Assay: Membranes were prepared from CHO cells expressing human S1P1. Cells pellets (1×10^9 cells/pellet) were suspended in buffer containing 20 mM HEPES (4-(2-hydroxyethyl)-1-piperazineethanesulfonic acid), pH 7.5, 50 mM NaCl, 2 mM EDTA (Ethylenediamine tetraacetic acid) and Protease Inhibitor cocktail (Roche), and disrupted on ice using the Polytron homogenizer. The homogenate was centrifuged at 20,000 rpm (48,000 g) and the supernatant was discarded. The membrane pellets were resuspended in buffer containing 50 mM HEPES, pH 7.5, 100 mM NaCl, 1 mM MgCl2, 2 mM EDTA and stored in aliquots at −80° C. after protein concentration determination.Membranes (2 μg/well) and 0.03 nM final concentration of 33P-S1P ligand (1 mCi/ml, Perkin Elmer or American Radiolabeled Chemicals) diluted in assay buffer (50 mM HEPES, pH7.4, 5 mM MgCl2, 1 mM CaCl2, 0.5% fatty acid free BSA(bovine serum albumin), 1 mM NaF) were added to the compound plates (384 Falcon v-bottom plate (0.5 μl/well in a 11 point, 3-fold dilution). Binding was performed for 45 minutes at room temperature, terminated by collecting the membranes onto 384-well Millipore FB filter plates, and radioactivity was measured by TOPCOUNT®. The competition data of the test compounds over a range of concentrations was plotted as percentage inhibition of radioligand specific binding. […]
Chain of Sphingosine 1-phosphate receptor 1 (P21453 whole entry): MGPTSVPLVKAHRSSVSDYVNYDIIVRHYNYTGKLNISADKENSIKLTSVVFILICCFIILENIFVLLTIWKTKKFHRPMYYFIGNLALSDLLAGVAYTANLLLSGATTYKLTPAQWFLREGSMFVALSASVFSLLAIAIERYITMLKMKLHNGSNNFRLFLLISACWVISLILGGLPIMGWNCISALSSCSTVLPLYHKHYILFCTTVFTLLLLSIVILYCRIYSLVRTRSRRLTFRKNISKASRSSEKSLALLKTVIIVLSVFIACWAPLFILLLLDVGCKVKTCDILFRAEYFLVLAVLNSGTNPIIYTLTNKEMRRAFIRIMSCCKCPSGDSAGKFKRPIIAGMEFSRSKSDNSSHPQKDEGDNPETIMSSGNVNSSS

EC50 [1]: > 60 µM
EC50 [2]: 14.4 µM
Structure (SMILES): CCCCCCCCc1cc(C)c(N2CCC(N)(COP(=O)(O)O)C2=O)c(C)c1 (configuration not stated)
